Measured values taken from US11713302B2, “Sulfonamide benzamide derivative and preparation method and application thereof” (WEIFANG MEDICAL UNIVERSITY, priority 2021, dated 2023).
Read-outs that look alike come from different tables or passages of the source.

How the values were obtained:
[1] = Cytotoxicity assay (CCK-8) in HepAD38 cells; assay type: cell-based; conditions: human
Experimental: (§1) HBV stably transfected hepatocellular carcinoma cell line, HepAD38, was able to secrete HBV viral particles (containing HBsAg, HBeAg and DNA) when the cells were cultured. The amount of HBsAg and HBeAg secreted by the cells and the DNA produced varied under the intervention of anti-HBV target compounds, so the antiviral activity of the sample drug could be calculated by measuring the amount of HBsAg and HBeAg secreted by the cells into the culture supernatant and the HBV DNA produced, with reference to the amount in the unspiked control. Using entecavir as a positive control drug, the concentration of the drug at 50% inhibition of HBV DNA was measured by quantitative PCR at the value of IC50; the concentration of the sample drug causing 50% cell death was measured by CCK-8 at the value of CC50, and the “selectivity index” of the compound to be tested was calculated. SI=CC50/IC50. (1) Cytotoxicity assay
(§2) Each sample was prepared with HepAD38 cell culture medium at a diluted concentration (1 μM) for preliminary activity screening, and a blank control was set up and a positive control drug was added to the 96-well cell culture plate with 3 replicate wells per concentration, and the same concentration was changed every 2 days and a drug-free cell control group was set up for 10 days. Cell viability was measured by CCK-8 assay to determine the toxicity of the drug to HepAD38 cells. Five dilutions (10 μM, 2 μM, 0.4 μM, 0.08 μM and […]) were prepared in HepAD38 cell culture medium for compounds with low toxicity, and a blank control and entecavir and lead compound 5a were used as positive control drugs. Cell culture plates were added to 96-well plates with 3 replicate wells per concentration, and the same concentration was changed every 2 days and a drug-free cell control group was set up for 10 days. Cell viability was measured by CCK-8 assay to determine the toxicity of the drug on HepAD38 cells.

HBV DNA = HBV DNA activity inhibition assay (quantitative PCR) in HepAD38 cells; assay type: cell-based, hepatitis B virus (HBV)
Experimental: as §1
(2) HBV DNA Activity Inhibition Assay (Quantitative PCR Method)
HepAD38 cells were cultured in 96-well cell culture plate for 24 hours, then 10 μM, 2 μM, 0.4 μM, 0.08 μM and […] drug-containing medium was added and the cells were incubated for 10 days (changed every 2 days), the supernatant was collected and the supernatant HBV DNA content was measured by quantitative PCR.

HepAD38 cells = experiment: Cytotoxicity assay (CCK-8) in HepAD38 cells; assay type: cell-based; conditions: CCK-8, 10 days
Experimental: as §1, §2

[2] = Hepatitis B virus, HePAD38, 240 h
[3] = Hepatitis B virus, 240 h, supernatant HBV DNA, HepAD38 cells, quantitative PCR, 10 days, read-out: EC50
[4] = Hepatitis B virus, 240 h, supernatant HBV DNA, HepAD38 cells, quantitative PCR, 10 days, read-out: IC90

SMILES: C=C1[C@H](CO)[C@@H](O)C[C@@H]1n1cnc2c(=O)[nH]c(N)nc21 [ETV, entecavir, reference compound]
- CC50 at 10 days ([1]; CCK-8, 10 days): > 10000 nM
- EC50 (HBV DNA; [2]): 0.121 nM
- IC90 (HBV DNA; [2]): 21 nM

SMILES: O=C(Nc1ccc(F)c(Cl)c1)c1cc(S(=O)(=O)NC2CCCC2)cc2c1OCCO2 [Compound 5b]
- CC50 at 10 days ([1]; CCK-8): > 10000 nM
- CC50 (HepAD38 cells): > 10000 nM
- EC50 (HBV DNA; [3]): 2.52 nM
- IC90 (HBV DNA; [4]): 293 nM
- inhibition of HBV DNA replication activity (initial screening) (HBV DNA; quantitative PCR): good HBV DNA replication inhibitory activity

SMILES: O=C(Nc1ccc(F)c(Cl)c1)c1cc(S(=O)(=O)NC2CCCCC2)cc2c1OCCO2 [Compound 5c]
- CC50 at 10 days ([1]; CCK-8): > 10000 nM
- CC50 (HepAD38 cells): > 10000 nM
- EC50 (HBV DNA; [3]): 14.9 nM
- IC90 (HBV DNA; [4]): 430 nM
- inhibition of HBV DNA replication activity (initial screening) (HBV DNA; quantitative PCR): good HBV DNA replication inhibitory activity

SMILES: CC(C)NS(=O)(=O)c1cc2c(c(C(=O)Nc3ccc(F)c(Cl)c3)c1)OCCO2 [Compound 5k]
- CC50 at 10 days ([1]; CCK-8): > 10000 nM
- CC50 (HepAD38 cells): > 10000 nM
- EC50 (HBV DNA; [3]): 0.96 nM
- IC90 (HBV DNA; [4]): 99 nM
- IC50 (HBV DNA; Hepatitis B virus, HePAD38, quantitative PCR, read-out: IC50 (anti-HBV DNA replication activity)): 0.96 nM
- inhibition of HBV DNA replication activity (initial screening) (HBV DNA; quantitative PCR): good HBV DNA replication inhibitory activity
